Experimental data published in ChEMBL document CHEMBL3400096, “6,7-Dihydrobenzo[f]benzo[4,5]imidazo[1,2-d][1,4]oxazepine derivatives as selective inhibitors of PI3Kα” (Bioorg Med Chem, 2015).

Key:
[1] = Antiproliferative activity against human HCT116 cells assessed as inhibition of absorbance after 72 hrs by MTT assay; type: functional, cell-based; conditions: HCT-116, 72 h
A549 = assay: Antiproliferative activity against human A549 cells assessed as inhibition of absorbance after 72 hrs by MTT assay; type: functional, cell-based; conditions: A549, 72 h
[2] = Antiproliferative activity against human HuH7 cells assessed as inhibition of absorbance after 72 hrs by MTT assay; type: functional, cell-based; conditions: Huh-7, 72 h
[3] = Antiproliferative activity against human HL60 cells assessed as inhibition of absorbance after 72 hrs by MTT assay; type: functional, cell-based; conditions: HL-60, 72 h
[4] = molecular target: Phosphatidylinositol 4,5-bisphosphate 3-kinase catalytic subunit alpha isoform (Homo sapiens, UniProt P42336); assay: Inhibition of recombinant PI3Kalpha (unknown origin) using […] as substrate after 3 hrs incubation by competitive fluorescence polarization kinase activity assay
[5] = molecular target: Phosphatidylinositol 4,5-bisphosphate 3-kinase catalytic subunit beta isoform (Homo sapiens, UniProt P42338); assay: Inhibition of recombinant PI3Kbeta (unknown origin) […] after 3 hrs incubation by competitive fluorescence polarization kinase activity assay
[6] = molecular target: Phosphatidylinositol 4,5-bisphosphate 3-kinase catalytic subunit gamma isoform (Homo sapiens, UniProt P48736); assay: Inhibition of recombinant PI3Kgamma (unknown origin) using […] as substrate after 3 hrs incubation by competitive fluorescence polarization kinase activity assay
[7] = molecular target: T1, Phosphatidylinositol 4,5-bisphosphate 3-kinase catalytic subunit delta isoform (Homo sapiens, UniProt O00329); assay: Inhibition of recombinant PI3Kdelta (unknown origin) using […] as substrate after 3 hrs incubation by competitive fluorescence polarization kinase activity assay
T1 sequence (O00329 whole entry): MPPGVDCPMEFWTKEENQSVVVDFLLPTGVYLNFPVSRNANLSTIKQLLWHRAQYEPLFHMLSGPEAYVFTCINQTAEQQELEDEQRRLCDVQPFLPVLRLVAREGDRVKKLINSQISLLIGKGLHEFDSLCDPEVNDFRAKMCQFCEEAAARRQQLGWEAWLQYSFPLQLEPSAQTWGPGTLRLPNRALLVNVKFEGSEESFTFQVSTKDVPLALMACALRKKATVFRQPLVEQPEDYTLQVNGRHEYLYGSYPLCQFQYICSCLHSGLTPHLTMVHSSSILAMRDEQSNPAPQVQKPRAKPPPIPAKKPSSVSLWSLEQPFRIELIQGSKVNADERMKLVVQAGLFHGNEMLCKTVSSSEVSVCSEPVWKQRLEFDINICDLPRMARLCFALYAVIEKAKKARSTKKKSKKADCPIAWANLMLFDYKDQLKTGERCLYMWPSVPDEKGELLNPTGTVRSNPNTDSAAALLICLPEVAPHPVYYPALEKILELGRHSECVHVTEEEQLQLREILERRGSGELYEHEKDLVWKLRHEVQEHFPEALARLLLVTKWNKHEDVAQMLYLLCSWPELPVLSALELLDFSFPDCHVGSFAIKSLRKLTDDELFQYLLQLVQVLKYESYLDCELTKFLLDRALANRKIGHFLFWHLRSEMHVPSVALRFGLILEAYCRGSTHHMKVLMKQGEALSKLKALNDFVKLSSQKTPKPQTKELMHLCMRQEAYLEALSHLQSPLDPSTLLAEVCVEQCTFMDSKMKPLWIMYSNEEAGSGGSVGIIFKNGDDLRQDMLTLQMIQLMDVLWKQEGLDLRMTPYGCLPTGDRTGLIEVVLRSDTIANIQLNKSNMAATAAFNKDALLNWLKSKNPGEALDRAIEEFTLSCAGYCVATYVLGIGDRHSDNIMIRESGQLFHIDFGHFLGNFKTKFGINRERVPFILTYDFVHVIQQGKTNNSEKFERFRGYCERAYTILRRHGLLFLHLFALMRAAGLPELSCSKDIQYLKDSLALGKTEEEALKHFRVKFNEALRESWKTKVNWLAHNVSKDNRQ

HCT-116 [8] = assay: Induction of apoptosis in human HCT116 cells assessed as necrotic cells at 0.5 uM after 24 hrs using annexin V/propidium iodide staining based flow cytometry (reference value: 4.09%); type: functional
HCT-116 [9] = assay: Induction of apoptosis in human HCT116 cells assessed as late apoptotic cells at 0.5 uM after 24 hrs using annexin V/propidium iodide staining based flow cytometry (reference value: 0.710%); type: functional
HCT-116 [10] = assay: Induction of apoptosis in human HCT116 cells assessed as early apoptotic cells at 0.5 uM after 24 hrs using annexin V/propidium iodide staining based flow cytometry (reference value: 1.93%); type: functional
HCT-116 [11] = assay: Induction of apoptosis in human HCT116 cells assessed as viable cells at 0.5 uM after 24 hrs using annexin V/propidium iodide staining based flow cytometry (reference value: 93.3%); type: functional; conditions: HCT-116, 24 h, read-out: Activity
HCT-116 [12] = assay: Induction of apoptosis in human HCT116 cells assessed as necrotic cells at 1 uM after 24 hrs using annexin V/propidium iodide staining based flow cytometry (reference value: 4.09%); type: functional
HCT-116 [13] = assay: Induction of apoptosis in human HCT116 cells assessed as late apoptotic cells at 1 uM after 24 hrs using annexin V/propidium iodide staining based flow cytometry (reference value: 0.710%); type: functional
HCT-116 [14] = assay: Induction of apoptosis in human HCT116 cells assessed as early apoptotic cells at 1 uM after 24 hrs using annexin V/propidium iodide staining based flow cytometry (reference value: 1.93%); type: functional
HCT-116 [15] = assay: Induction of apoptosis in human HCT116 cells assessed as viable cells at 1 uM after 24 hrs using annexin V/propidium iodide staining based flow cytometry (reference value: 93.3%); type: functional; conditions: HCT-116, 24 h, read-out: Activity
HCT-116 [16] = assay: Induction of apoptosis in human HCT116 cells assessed as necrotic cells at 2 uM after 24 hrs using annexin V/propidium iodide staining based flow cytometry (reference value: 4.09%); type: functional
HCT-116 [17] = assay: Induction of apoptosis in human HCT116 cells assessed as late apoptotic cells at 2 uM after 24 hrs using annexin V/propidium iodide staining based flow cytometry (reference value: 0.710%); type: functional
HCT-116 [18] = assay: Induction of apoptosis in human HCT116 cells assessed as early apoptotic cells at 2 uM after 24 hrs using annexin V/propidium iodide staining based flow cytometry (reference value: 1.93%); type: functional
HCT-116 [19] = assay: Induction of apoptosis in human HCT116 cells assessed as viable cells at 2 uM after 24 hrs using annexin V/propidium iodide staining based flow cytometry (reference value: 93.3%); type: functional; conditions: HCT-116, 24 h, read-out: Activity
HCT-116 [20] = assay: Induction of apoptosis in human HCT116 cells after 24 hrs using annexin V/propidium iodide staining based flow cytometry; type: functional, cell-based
HCT-116 [21] = assay: Induction of apoptosis in human HCT116 cells assessed as early apoptotic cells after 24 hrs using annexin V/propidium iodide staining based flow cytometry; type: functional, cell-based

Sequence of Phosphatidylinositol 4,5-bisphosphate 3-kinase catalytic subunit alpha isoform (P42336 whole entry, canonical isoform): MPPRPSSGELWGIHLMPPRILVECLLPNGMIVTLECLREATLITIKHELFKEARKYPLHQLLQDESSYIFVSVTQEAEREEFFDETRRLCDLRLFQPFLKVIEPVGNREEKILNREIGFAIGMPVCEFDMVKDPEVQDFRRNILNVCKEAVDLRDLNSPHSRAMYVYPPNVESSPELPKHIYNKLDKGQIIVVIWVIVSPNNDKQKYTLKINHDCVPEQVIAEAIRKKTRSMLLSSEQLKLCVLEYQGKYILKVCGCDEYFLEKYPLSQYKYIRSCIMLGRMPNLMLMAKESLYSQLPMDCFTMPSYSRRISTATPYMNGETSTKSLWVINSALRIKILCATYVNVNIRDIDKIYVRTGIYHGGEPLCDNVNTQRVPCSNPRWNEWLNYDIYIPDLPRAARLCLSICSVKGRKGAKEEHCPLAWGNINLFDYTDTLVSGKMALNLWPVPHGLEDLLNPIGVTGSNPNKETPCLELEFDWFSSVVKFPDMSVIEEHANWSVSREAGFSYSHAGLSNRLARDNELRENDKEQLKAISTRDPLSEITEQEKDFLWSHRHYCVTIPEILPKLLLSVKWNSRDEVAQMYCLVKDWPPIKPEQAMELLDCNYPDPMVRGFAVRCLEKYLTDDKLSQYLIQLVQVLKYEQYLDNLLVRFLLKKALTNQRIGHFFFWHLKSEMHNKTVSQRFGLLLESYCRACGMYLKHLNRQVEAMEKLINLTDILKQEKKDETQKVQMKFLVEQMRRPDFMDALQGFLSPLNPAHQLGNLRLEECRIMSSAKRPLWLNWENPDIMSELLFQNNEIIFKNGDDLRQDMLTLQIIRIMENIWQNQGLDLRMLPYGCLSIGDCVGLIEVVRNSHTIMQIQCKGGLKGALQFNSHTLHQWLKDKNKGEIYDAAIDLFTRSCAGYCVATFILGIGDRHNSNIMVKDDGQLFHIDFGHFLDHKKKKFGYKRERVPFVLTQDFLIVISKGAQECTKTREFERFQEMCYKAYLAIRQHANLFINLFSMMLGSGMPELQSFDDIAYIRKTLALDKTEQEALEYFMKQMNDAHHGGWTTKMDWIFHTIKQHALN
Sequence of Phosphatidylinositol 4,5-bisphosphate 3-kinase catalytic subunit gamma isoform (P48736 whole entry, canonical isoform): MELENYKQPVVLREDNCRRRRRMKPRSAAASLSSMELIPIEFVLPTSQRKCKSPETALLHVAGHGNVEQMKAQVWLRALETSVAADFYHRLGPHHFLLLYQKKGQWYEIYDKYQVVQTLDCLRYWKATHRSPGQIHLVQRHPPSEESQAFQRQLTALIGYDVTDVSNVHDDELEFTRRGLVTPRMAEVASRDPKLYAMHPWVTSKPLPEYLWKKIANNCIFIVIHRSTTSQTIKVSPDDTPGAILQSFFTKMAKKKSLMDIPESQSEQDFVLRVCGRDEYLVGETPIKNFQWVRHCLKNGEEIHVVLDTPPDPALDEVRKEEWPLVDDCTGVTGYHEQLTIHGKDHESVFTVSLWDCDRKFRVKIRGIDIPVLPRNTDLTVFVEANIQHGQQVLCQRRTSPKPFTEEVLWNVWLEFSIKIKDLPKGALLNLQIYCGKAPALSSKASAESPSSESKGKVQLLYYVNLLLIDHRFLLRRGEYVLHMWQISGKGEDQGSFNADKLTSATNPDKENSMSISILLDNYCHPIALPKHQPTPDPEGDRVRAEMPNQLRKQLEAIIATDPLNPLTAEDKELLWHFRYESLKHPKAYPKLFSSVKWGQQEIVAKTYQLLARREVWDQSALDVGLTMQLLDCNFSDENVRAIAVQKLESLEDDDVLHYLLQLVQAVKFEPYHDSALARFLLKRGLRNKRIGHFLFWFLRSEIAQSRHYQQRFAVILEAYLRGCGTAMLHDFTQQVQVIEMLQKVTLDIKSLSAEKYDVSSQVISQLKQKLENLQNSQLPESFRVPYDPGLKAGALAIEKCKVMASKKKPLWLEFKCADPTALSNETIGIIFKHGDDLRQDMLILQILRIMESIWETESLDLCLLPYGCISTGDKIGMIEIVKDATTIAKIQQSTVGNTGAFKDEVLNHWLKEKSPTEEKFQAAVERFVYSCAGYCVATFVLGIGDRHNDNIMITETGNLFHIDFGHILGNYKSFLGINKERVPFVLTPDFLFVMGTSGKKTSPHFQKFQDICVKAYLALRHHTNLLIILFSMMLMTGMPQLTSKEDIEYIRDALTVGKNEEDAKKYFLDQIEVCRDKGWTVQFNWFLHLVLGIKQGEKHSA
Sequence of Phosphatidylinositol 4,5-bisphosphate 3-kinase catalytic subunit beta isoform (P42338 whole entry, canonical isoform): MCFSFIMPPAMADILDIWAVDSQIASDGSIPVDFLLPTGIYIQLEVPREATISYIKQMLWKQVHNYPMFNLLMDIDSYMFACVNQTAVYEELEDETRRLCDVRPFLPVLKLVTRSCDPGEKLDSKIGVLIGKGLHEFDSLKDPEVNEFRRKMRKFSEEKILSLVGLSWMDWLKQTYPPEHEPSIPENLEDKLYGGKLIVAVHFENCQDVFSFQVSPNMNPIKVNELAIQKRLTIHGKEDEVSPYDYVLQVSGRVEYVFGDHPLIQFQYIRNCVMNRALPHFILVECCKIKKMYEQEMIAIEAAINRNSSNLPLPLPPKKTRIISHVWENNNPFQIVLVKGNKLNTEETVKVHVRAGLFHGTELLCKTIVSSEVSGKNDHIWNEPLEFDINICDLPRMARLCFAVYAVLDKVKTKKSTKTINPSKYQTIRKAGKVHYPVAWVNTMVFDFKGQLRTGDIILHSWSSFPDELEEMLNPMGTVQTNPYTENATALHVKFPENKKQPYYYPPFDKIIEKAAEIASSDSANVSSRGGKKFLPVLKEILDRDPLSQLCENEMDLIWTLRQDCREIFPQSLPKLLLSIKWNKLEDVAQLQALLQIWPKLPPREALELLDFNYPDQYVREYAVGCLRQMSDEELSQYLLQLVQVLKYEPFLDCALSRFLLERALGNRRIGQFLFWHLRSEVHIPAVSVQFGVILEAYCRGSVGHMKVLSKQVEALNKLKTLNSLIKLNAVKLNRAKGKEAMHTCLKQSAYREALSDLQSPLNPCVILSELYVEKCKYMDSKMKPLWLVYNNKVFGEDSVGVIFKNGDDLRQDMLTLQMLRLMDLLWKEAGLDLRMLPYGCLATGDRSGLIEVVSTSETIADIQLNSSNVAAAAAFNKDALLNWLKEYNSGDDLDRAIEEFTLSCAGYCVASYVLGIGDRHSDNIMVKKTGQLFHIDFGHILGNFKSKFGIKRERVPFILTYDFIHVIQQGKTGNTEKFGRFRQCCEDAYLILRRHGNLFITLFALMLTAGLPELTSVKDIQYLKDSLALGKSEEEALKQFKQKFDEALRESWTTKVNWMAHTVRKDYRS

| Structure (SMILES) | IC50 (A549) [µM] | IC50 [4] [µM] | IC50 [5] [µM] | IC50 [6] [µM] | IC50 [7] [µM] | IC50 [1] [µM] | IC50 [2] [µM] | IC50 [3] [µM] | further results |
| --- | --- | --- | --- | --- | --- | --- | --- | --- | --- |
| Clc1ccc2c(c1)nc1n2CCOc2ccccc2-1 | 77.3 |  |  |  |  | 71.5 | 80.3 | 73.8 |  |
| Brc1ccc2c(c1)-c1nc3ccccc3n1CCO2 | 128 |  |  |  |  | 98.5 | 132 | 103 |  |
| Cc1ccc2c(c1)-c1nc3cc(Cl)ccc3n1CCO2 | 55.6 |  |  |  |  | 46.4 | 64.5 | 51.6 |  |
| O=c1cc(N2CCOCC2)oc2c(-c3ccccc3)cccc12 [LY-294002] | 82.3 |  |  |  | 1.36 | 51.8 | 67.2 |  |  |
| Cc1ccc2c(c1)-c1nc3ccccc3n1CCO2 | 148 |  |  |  |  | 112 | 144 | 122 |  |
| Brc1ccc2c(c1)-c1nc3cc(Br)ccc3n1CCO2 | 0.48 | 0.092 | 0.284 | 19.5 | 39.8 | 0.47 | 0.51 | 0.47 |  |
| Clc1ccc2c(c1)-c1nc3ccccc3n1CCO2 | 108 |  |  |  |  | 87.7 | 92.5 | 91.3 |  |
| Cc1ccc2c(c1)-c1nc3cc(C(F)(F)F)ccc3n1CCO2 | 4.95 | 0.685 | 1.21 | 41.6 | > 50 | 4.45 | 6.47 | 4.86 |  |
| FC(F)(F)c1ccc2c(c1)nc1n2CCOc2ccc(Br)cc2-1 | 68.5 |  |  |  |  | 60.6 | 69.7 | 66.4 |  |
| O=[N+]([O-])c1ccc2c(c1)nc1n2CCOc2ccccc2-1 | 122 |  |  |  |  | 91 | 105 | 94.5 |  |
| Cc1ccc2c(c1)-c1nc3cc(Br)ccc3n1CCO2 | 7.88 | 0.662 | 1.03 | 44.1 | 47.8 | 7.38 | 4.91 | 7.68 |  |
| Fc1ccc2c(c1)nc1n2CCOc2ccc(Br)cc2-1 | 0.7 | 0.181 | 0.473 | 27.9 | > 50 | 0.74 | 0.74 | 0.78 |  |
| Fc1ccc2c(c1)nc1n2CCOc2ccccc2-1 | 89.4 |  |  |  |  | 76.5 | 91.9 | 82.5 |  |
| Cc1ccc2c(c1)nc1n2CCOc2ccc(Cl)cc2-1 | 61.6 |  |  |  |  | 58.2 | 63.4 | 57.4 |  |
| Cc1ccc2c(c1)nc1n2CCOc2ccccc2-1 | 83.7 |  |  |  |  | 73.5 | 82.6 | 75.2 |  |
| Cc1ccc2c(c1)-c1nc3cc(C)ccc3n1CCO2 | 0.61 | 0.118 | 0.394 | 17.1 | > 50 | 0.59 | 0.67 | 0.58 |  |
| c1ccc2c(c1)OCCn1c-2nc2ccccc21 | 133 |  |  |  |  | 101 | 124 | 108 |  |
| Cc1ccc2c(c1)-c1nc3cc([N+](=O)[O-])ccc3n1CCO2 | 0.11 | 0.016 | 0.184 | 9.44 | 34.6 | 0.08 | 0.12 | 0.1 | Activity (HCT-116 [8]): 0.523%; Activity (HCT-116 [9]): 4.91%; Activity (HCT-116 [10]): 15.1%; viability at 0.5 µM (HCT-116 [11]): 79.5%; Activity (HCT-116 [12]): 1.26%; Activity (HCT-116 [13]): 4.13%; Activity (HCT-116 [14]): 17.8%; viability at 1 µM (HCT-116 [15]): 76.8%; Activity (HCT-116 [16]): 0.974%; Activity (HCT-116 [17]): 5.98%; Activity (HCT-116 [18]): 27.3%; viability at 2 µM (HCT-116 [19]): 65.7%; Activity (HCT-116 [20]): Dose-dependent effect; Activity (HCT-116 [21]): Dose-dependent effect |
| Cc1ccc2c(c1)-c1nc3cc(F)ccc3n1CCO2 | 2.85 | 0.474 | 0.907 | 34.6 | > 50 | 2.46 | 3.86 | 4.56 |  |

Second part, led by results:

| IC50 (A549) [µM] | IC50 [4] [µM] | IC50 [5] [µM] | IC50 [6] [µM] | IC50 [7] [µM] | Structure (SMILES) | IC50 [1] [µM] | IC50 [2] [µM] | IC50 [3] [µM] | further results |
| --- | --- | --- | --- | --- | --- | --- | --- | --- | --- |
| 0.56 | 0.127 | 0.363 | 24.3 | > 50 | Clc1ccc2c(c1)-c1nc3cc(Cl)ccc3n1CCO2 | 0.52 | 0.45 | 0.53 |  |
| 74.1 |  |  |  |  | Clc1ccc2c(c1)-c1nc3cc(Br)ccc3n1CCO2 | 64.4 | 72.1 | 66.7 |  |
| 38.3 |  |  |  |  | FC(F)(F)c1ccc2c(c1)nc1n2CCOc2ccc(Cl)cc2-1 | 34.7 | 42.3 | 38 |  |
| 22 |  |  |  |  | O=[N+]([O-])c1ccc2c(c1)nc1n2CCOc2ccc(Br)cc2-1 | 19 | 24.3 | 17.5 |  |
| 92.8 |  |  |  |  | Cc1ccc2c(c1)nc1n2CCOc2ccc(Br)cc2-1 | 80.1 | 97.4 | 88.6 |  |
| 0.17 | 0.031 | 0.188 | 11.8 | > 50 | Clc1ccc2c(c1)nc1n2CCOc2ccc(Br)cc2-1 | 0.12 | 0.18 | 0.15 |  |
| 28.3 |  |  |  |  | O=[N+]([O-])c1ccc2c(c1)nc1n2CCOc2ccc(Cl)cc2-1 | 28.4 | 20.1 | 32.9 |  |
| 1.71 | 0.283 | 0.488 | 21.7 | 42.6 | Fc1ccc2c(c1)nc1n2CCOc2ccc(Cl)cc2-1 | 1.83 | 1.35 | 1.89 |  |
| 49.5 |  |  |  |  | Brc1ccc2c(c1)nc1n2CCOc2ccccc2-1 | 43.9 | 58.5 | 44.3 |  |
| 11.5 |  |  |  |  | FC(F)(F)c1ccc2c(c1)nc1n2CCOc2ccccc2-1 | 13.8 | 18.7 | 10.1 |  |
